Data as given in patent US20130302247A1, “SYNTHESIS OF FLUOROARACHIDONIC ACID AND METHODS OF USE THEREOF” (The United States of America, as represented by the …, priority 2012, published 2013).

Legend:
[1] = Incorporation of [19F]FAA into brain lipids of unanesthetized mice (GC/MS, in vivo kinetic infusion model); set-up: species or system C57BL/6J male mice
Method: (§1) The plasma and brain kinetics of the purified [^19F]FAA were tested in unanesthetized adult C57BL/6J male mice. The study was conducted following the National Institutes of Health Guidelines for the Care and Use of Laboratory Animals (Publication no. 80-23) and was approved by the Animal Care and Use Committee of the Eunice Kennedy Shriver National Institute of Child Health and Human Development. Male C57BL/6J mice were obtained at the age of 2-3 months. The mice were maintained in an animal facility in which temperature, humidity, and light cycle were regulated with free access to water and a fixed diet (Rodent NIH-07) that contained (as fractional percent of total fatty acids), 30.6% saturated, 22.5% monounsaturated, […], 4.9% α-linolenic, 0.2% AA, 1.6% eicosapentaenoic, and 2.2% docosahexaenoic acid.
At 4-5 months of age, a mouse was anesthetized with […], and polyethylene catheters were inserted into the femoral artery and vein. The mouse was allowed to recover from surgery in an environment maintained at 25° C., with its hindquarters loosely wrapped and taped to a wooden block. During recovery, body temperature was maintained at 37° C. by means of a rectal probe and a heating element (Indicating Temperature Controller; Yellow Springs Instrument). After 3 h of recovery, the unanesthetized mouse was infused intravenously for 5 min with 130 μl HEPES buffer (pH 7.4) containing 50 mg/ml fatty acid-free bovine serum albumin (BSA, Sigma), or 0.1 mg or 0.5 mg 20-fluoroarachidonic acid (20-FAA) dissolved in HEPES-BSA at a rate of 0.0223 (1+e^−0.32t) ml/min (t in seconds), using a computer-controlled variable rate infusion pump (No. 22; Harvard Apparatus). During infusion, timed arterial blood samples (˜20 μl) were collected in polyethylene-heparin lithium fluoride-coated Beckman centrifuge tubes at 0, 0.25, 0.5, 1.0, 1.5, 3.0, and 4.0 min, and 150 μl was collected at 4.9 min. Plasma samples were separated by centrifuging at 13,000 rpm for 1 min, and stored at −80° C. until they were analyzed. At 5 min, the mouse was anesthetized with sodium pentobarbital (50 mg/kg, i.v.) and subjected to head-focused microwave irradiation (5.5 kW, 0.9 s, 75% power output; Cober Electronics) to stop brain fatty acid metabolism (27). The brain was excised, dissected sagittally and stored at −80° C. until analysis.
Total lipids were extracted from plasma (7-10 μl) and from half brain (˜0.2 g) by the method of Folch et al (28). Heptadecanoic acid (17:0) was added as an internal standard to plasma prior to extraction. Total lipid extracts were separated by thin layer chromatography (TLC) on silica gel plates (Silica Gel 60A TLC plates; Whatman) that were pre-washed with chloroform/methanol (2:1 v/v) and activated by heating at 100° C. Neutral lipid subclasses including phospholipids (PLs), unesterified fatty acids (UFAs), triglycerides (TGs) and cholesteryl esters (CEs) were separated using a mixture of heptane:diethyl ether:glacial acetic acid (60:40:3 by volume) (29), and authentic PL, cholesterol, UFA, TG and CE standards were run in separate lanes to identify the bands. Phospholipid classes (EtnGpl, ethanolamine glycerophospholipid; ChoGpl, choline glycerophospholipid; PtdIns, phosphatidylinositol; PtdSer, phosphatidylserine) were separated in chloroform:methanol:H2O:glacial acetic acid (60:50:4:1 by volume) (30) and identified with authentic standards in separate lanes. The plates were sprayed with 0.03% (w/v) 6-p-toluidine-2-naphthalene sulfonic acid (Acros) in 50 mM Tris-HCl buffer (pH 7.4), and the lipid bands were visualized under UV light. Each band was scraped into tubes containing di-17:0 PC for quantifying PL, CE, TG, EtnGpl, ChoGpl, PtdIns and PtdSer lipid fractions, or 17:0 heptadecaenoic acid to quantify brain UFAs. Toluene (0.2 ml) was added to each tube. The UFAs were extracted from the scraped silica using 2:1 chloroform/methanol and 1.5 ml of 0.1 M KCl, dried and derivitized as described below. […]

[2] = Plasma kinetics of FAA during 5-min intravenous infusion in unanesthetized mice; assay type: in vivo, C57BL/6J male mice; settings: 5-minute intravenous infusion; for plasma area under the curve: mice
Method: as §1
At 4-5 months of age, a mouse was anesthetized with […], and polyethylene catheters were inserted into the femoral artery and vein. The mouse was allowed to recover from surgery in an environment maintained at 25° C., with its hindquarters loosely wrapped and taped to a wooden block. During recovery, body temperature was maintained at 37° C. by means of a rectal probe and a heating element (Indicating Temperature Controller; Yellow Springs Instrument). […] Plasma samples were separated by centrifuging at 13,000 rpm for 1 min, and stored at −80° C. until they were analyzed. […]
Total lipids were extracted from plasma (7-10 μl) and from half brain (˜0.2 g) by the method of Folch et al (28). […] Each band was scraped into tubes containing di-17:0 PC for quantifying PL, CE, TG, EtnGpl, ChoGpl, PtdIns and PtdSer lipid fractions, or 17:0 heptadecaenoic acid to quantify brain UFAs. […]

[3] = mouse, intravenously injected, from ref (2); cited from earlier work
[4] = mouse brain, 5-min i.v. infusion, mean±SD, n=3

Row | FAA detected in brain unesterified fatty acid, triglyceride and cholesteryl ester fractions ([1]; end of 5-min infusion, mouse brain) [nmol/g] | k* values, brain ChoGpl [1, 4] [ml/s/g × 10^4] | k* values, brain EtnGpl [1, 4] [ml/s/g × 10^4] | k* values, brain PtdIns [1, 4] [ml/s/g × 10^4] | k* values, brain PtdSer [1, 4] [ml/s/g × 10^4] | k* values, brain Total lipid [1, 4] [ml/s/g × 10^4] | plasma area under the curve ([2]; high dose (1.6 nmol)) [µM·h] | plasma area under the curve ([2]; low dose (0.3 nmol)) [µM·h] | Compound | FAA concentration within brain phospholipids (rank order) ([1]; both doses, end of 5-min infusion, FIG. 2-A) | incorporation coefficient k*, high versus low dose ([1]; mouse brain lipids, FIG. 3) | distribution of FAA in each phospholipid fraction, percentage of FAA in total phospholipid (rank order) ([1]; mouse brain, FIG. 2-B, p<0.01) | FAA concentration in plasma over time ([2]; 0.3 or 1.6 nmol, FIG. 1) | Published k* values, brain ChoGpl [3] [ml/s/g × 10^4] | Published k* values, brain EtnGpl [3] [ml/s/g × 10^4] | Published k* values, brain PtdIns [3] [ml/s/g × 10^4] | Published k* values, brain PtdSer [3] [ml/s/g × 10^4] | Published k* values, brain Total lipid [3] [ml/s/g × 10^4]
1 | < 0.01 | 6.8 ± 2.6 | 2.8 ± 0.4 | 8.6 ± 1.3 | 0.4 ± 0.1 | 15.0 ± 2.3 | 0.236 ± 0.0189 | 0.0297 ± 0.0217 | O=C(O)CCC/C=C\C/C=C\C/C=C\C/C=C\CCCCCF [FAA, 20-Fluoroarachidonic acid] | highest in PtdIns and ChoGpl, followed by EtnGpl and PtdSer | lower for the high infusion dose than the low dose | highest in ChoGlp, followed by PtdIns, EtnGlp and PtdSer | increased over time in a dose-dependent manner | – | – | – | – | –
2 | – | – | – | – | – | – | – | – | CCCCC/C=C\C/C=C\C/C=C\C/C=C\CCCC(=O)O [[1-^14C]AA] | – | – | – | – | 5.9 ± 1.4 | 5.7 ± 1.0 | 6.8 ± 0.8 | 1.8 ± 0.5 | 22.6 ± 1.3
